# Reference: paper PMC12301332, “Biased antagonism of a series of bicyclic CXCR2 intracellular allosteric modulators” (Frontiers in Pharmacology, 2025)
# Experiments:
# CXCR2 [1] = target: T1, CXCR2 (Homo sapiens, UniProt P25025); test: NanoBRET-based G protein activation inhibition assay (REGA-SIGN Gαi1 dissociation) in HEK293A.CXCR2 cells; format: cell-based; details: n = 3; for IC50: mean; for Imax Gαi1 (maximum observed inhibitory effect): normalized to Imax of navarixin = 100%
# T1 construct: expressed in transfected cells
# T1 sequence (P25025 1-360): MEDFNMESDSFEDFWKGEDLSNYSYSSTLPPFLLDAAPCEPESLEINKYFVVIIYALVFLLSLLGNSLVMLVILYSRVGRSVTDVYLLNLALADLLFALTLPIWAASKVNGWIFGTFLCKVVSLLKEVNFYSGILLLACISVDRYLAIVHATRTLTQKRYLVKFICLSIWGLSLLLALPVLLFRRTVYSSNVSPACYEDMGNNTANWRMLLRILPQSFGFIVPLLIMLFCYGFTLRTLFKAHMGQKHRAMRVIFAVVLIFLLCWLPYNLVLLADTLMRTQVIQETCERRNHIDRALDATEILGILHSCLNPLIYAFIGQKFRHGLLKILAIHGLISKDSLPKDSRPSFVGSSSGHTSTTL
# Protocol: Cells were trypsinized and resuspended at 3 × 10^5 cell/mL in the growth medium, whereafter they were incubated for 2 hours at RT. Cells were transfected in suspension using FuGENE® HD Transfection Reagent at a 3:1 reagent to DNA ratio in Opti-MEMTM I Reduced-Serum Medium, with the final DNA concentration of 1 μg/μL. The transfection mixture was incubated for 10 min at RT before adding it to the cell suspension. Transfected cells were seeded at 3.0 × 10^4 cells/well in a white, clear, flat-bottom 96-well plate coated with 100 μg/mL poly-D-lysin ([…], Sigma Aldrich) and incubated for 48 h at 37°C and 5% CO2. […] (2023)]. Following the 48-h incubation period, cells were washed with the assay buffer. Compounds were serially diluted in 1:500 Nano-Glo® Vivazine^TM working solution (#N2581, Promega), and 90 μL of compound/Vivazine mix was added, followed by incubation for 45 min at 37°C and 5% CO2. Plates were transferred to the FLIPR Penta system (Molecular Devices) at 37°C, and all steps onward are automated and performed by the FLIPR Penta system. After a 10-min equilibration period, the baseline BRET signal was determined by five consecutive reads followed by automatic administration of 10 μL of 10× ligand (Table 1) to the cell plate. Changes in the BRET signal was measured for 10 min, with each read spaced by 2.5 s. […] BRET ratios were extracted from ScreenWorks software (Molecular Devices) and represent the ratio between the acceptor emission of […]2 or mNG (G protein or β-arrestin recruitment, respectively) and NLuc donor emission. The basal BRET ratio was defined as the average BRET ratio of the five consecutive readings preceding ligand addition. Changes in BRET values post ligand administration (ΔBRET) were calculated for each well as a percentage difference to the previously defined basal BRET ratio. Average ΔBRET values were baseline corrected by subtracting the average negative control BRET ratio (unstimulated condition). […] AUCs were normalized to the positive control (stimulated condition); whereafter, dose-response curves were fitted to log (inhibitor) vs response (three parameters) in GraphPad 10.2.0 (GraphPad Software). […] Calculation 1: calculation of the BRET signal. • 1. […] NC correctedΔBRET=Δ[…]. • 4. a. Neg AUC of NC correctedΔBRET=Gα activation read out. b. Pos AUC of NC correctedΔBRET=β-arrestin recruitment.
# CXCR2 [2] = target: T1, CXCR2; set-up: method as in Van Hoof et al., 2022; details: ref Van Hoof et al., 2022; cited from earlier work
SMILES,IC50 (CXCR2 [1]; CXCL1 at EC80) [µM],Imax Gαi1 (maximum observed inhibitory effect) (CXCR2 [1]; CXCL1 at EC80) [%],IC50 (CXCR2 [1]; CXCL2 at EC80) [µM],Imax Gαi1 (maximum observed inhibitory effect) (CXCR2 [1]; CXCL2 at EC80) [%],IC50 (CXCR2 [1]; CXCL3 at EC80) [µM],Imax Gαi1 (maximum observed inhibitory effect) (CXCR2 [1]; CXCL3 at EC80) [%],IC50 (CXCR2 [1]; CXCL5 at EC80) [µM],Imax Gαi1 (maximum observed inhibitory effect) (CXCR2 [1]; CXCL5 at EC80) [%],IC50 (CXCR2 [1]; CXCL6 at EC80) [µM],Imax Gαi1 (maximum observed inhibitory effect) (CXCR2 [1]; CXCL6 at EC80) [%],IC50 (CXCR2 [1]; CXCL7 at EC80) [µM],Imax Gαi1 (maximum observed inhibitory effect) (CXCR2 [1]; CXCL7 at EC80) [%],IC50 (CXCR2 [1]; CXCL8 at EC80) [µM],Imax Gαi1 (maximum observed inhibitory effect) (CXCR2 [1]; CXCL8 at EC80) [%],calcium mobilization antagonism (CXCR2 [2])
CC(CO)Nc1nc(SCc2cccc(F)c2F)nc2oncc12 (stereo not drawn) [MVH-24],2.08 ± 0.42,96.47 ± 3.69,1.21 ± 0.63,100,14.8 ± 10.1,100,1.43 ± 0.71,98.52 ± 2.04,1.06 ± 0.75,100,0.75 ± 0.26,94.94 ± 3.57,2.49 ± 1.24,100,most potent
CC(CO)Nc1nc(SCc2cccc(F)c2F)nc2cnccc12 (stereo not drawn) [MVH-3],> 15,–,6.24 ± 1.15,100,> 15,–,10.2 ± 6.52,93.7 ± 5.53,7.53 ± 1.74,–,10.9 ± 9.58,–,> 15,–,potent
CC(CCO)Nc1nc(SCc2cccc(F)c2F)nc2[nH]nnc12 (stereo not drawn) [MVH-33],> 15,<50,> 15,<50,> 15,<50,13.1 ± 4.76,100,> 15,<50,10.1 ± 4.8,98.43 ± 2.62,> 15,<50,–
